Laboratory results as given in patent publication US10016422B2, “Nanocarrier drug delivery platform” (Oregon State University, priority 2015, dated 2018).
≈ marks a conversion by molar mass, not a printed value.

Assay: Intrinsic aqueous solubility and solubility increase in nanoparticles
Assay type: physicochemical
Conditions: for solubility: aqueous medium; for increase of solubility by incorporation into the nanoparticles: versus intrinsic aqueous solubility

## O=c1cc(N2CCOCC2)oc2c(-c3ccccc3)cccc12 [LY, LY294002]
  solubility: 243 µg/mL (≈ 791 µM)
  increase of solubility by incorporation into the nanoparticles: 8 fold

## CC(=O)O[C@@]12CO[C@@H]1C[C@H](O)[C@@]1(C)C(=O)[C@H](O)C3=C(C)[C@@H](OC(=O)[C@H](O)[C@@H](NC(=O)OC(C)(C)C)c4ccccc4)C[C@@](O)([C@@H](OC(=O)c4ccccc4)[C@H]21)C3(C)C [DTX, docetaxel]
  increase of solubility by incorporation into the nanoparticles: 455 fold

## CC(C)(C)c1nc(-c2cccc(NS(=O)(=O)c3c(F)cccc3F)c2F)c(-c2ccnc(N)n2)s1 [DAB, dabrafenib]
  solubility: 1 µg/mL (≈ 1.92 µM)
  increase of solubility by incorporation into the nanoparticles: 1000 fold

## CO[C@H]1C[C@@H]2CC[C@@H](C)[C@@](O)(O2)C(=O)C(=O)N2CCCC[C@H]2C(=O)O[C@H]([C@H](C)C[C@@H]2CC[C@@H](OCCO)[C@H](OC)C2)CC(=O)[C@H](C)/C=C(\C)[C@@H](O)[C@@H](OC)C(=O)[C@H](C)C[C@H](C)/C=C/C=C/C=C/1C [EVR, everolimus]
  solubility: 9.6 µg/mL (≈ 10 µM)
  increase of solubility by incorporation into the nanoparticles: 201 fold

## CC(=O)Nc1cccc(-n2c(=O)n(C3CC3)c(=O)c3c(Nc4ccc(I)cc4F)n(C)c(=O)c(C)c32)c1 [TRA, trametinib]
  solubility: 6 µg/mL (≈ 9.75 µM)
  increase of solubility by incorporation into the nanoparticles: 221 fold
